Measurements taken from ChEMBL document CHEMBL5244219, “Recent developments of quinolone-based derivatives and their activities against Escherichia coli” (Eur J Med Chem, 2018).
Values after ≈ are worked out from the molar mass of the structure shown.

Tests used:
Assay type in all cases: functional
Escherichia coli [1] = experiment: Antibacterial activity against Escherichia coli assessed as bacterial growth inhibition incubated for 18 hrs by twofold serial dilution assay
Escherichia coli [2] = experiment: Antibacterial activity against Escherichia coli assessed as bacterial growth inhibition incubated for 24 hrs by agar streak dilution method
Escherichia coli [3] = experiment: Antibacterial activity against Escherichia coli NIHJ JC-2 assessed as bacterial growth inhibition
Escherichia coli [4] = experiment: Antibacterial activity against Escherichia coli NCDC 134 assessed as bacterial growth inhibition

`O=C(CN1CCN(c2cc3c(cc2F)c(=O)c(C(=O)O)cn3C2CC2)CC1)c1cccs1` gave an MIC (Escherichia coli [1]) of 0.0075 µg/mL (≈ 0.0165 µM).
`CCOc1ccc2nc(N3C(=O)CSC3N3CCN(c4cc5c(cc4F)c(=O)c(C(=O)O)cn5CC)CC3)sc2c1` (configuration not stated) gave an MIC (Escherichia coli [2]) of 2 µg/mL (≈ 3.35 µM).
`O=C(O)c1cn(C2CC2)c2nc(N3CCN(C/C(=N/OCc4ccccc4)c4ccoc4)CC3)c(F)cc2c1=O` showed an MIC (Escherichia coli [1]) of 0.049 µg/mL (≈ 0.0898 µM).
Work on `CCn1cc(C(=O)O)c(=O)c2cc(F)c(N3CCN(C4SCC(=O)N4c4nc5ccc(OC)cc5s4)CC3)cc21` (configuration not stated) yielded an MIC (Escherichia coli [2]) of 2 µg/mL (≈ 3.43 µM).
`NC1CCN(c2c(Cl)c3c(c(=O)c(C(=O)O)cn3C3CC3)c3[nH]nnc23)C1` (configuration not stated) gave an MIC (Escherichia coli [3]) of 0.025 µg/mL (≈ 0.0643 µM).
Work on `NCC1CCN(c2cc3c(c(=O)c(C(=O)O)cn3C3CC3)c3[nH]cnc23)C1` (configuration not stated) yielded an MIC (Escherichia coli [3]) of 0.025 µg/mL (≈ 0.068 µM).
`CO/N=C(/CN1CCN(c2cc3c(cc2F)c(=O)c(C(=O)O)cn3C2CC2)CC1)c1cccs1` was tested, and the MIC (Escherichia coli [1]) was 0.0075 µg/mL (≈ 0.0155 µM).
For `O=C(CN1CCN(c2cc3c(cc2F)c(=O)c(C(=O)O)cn3C2CC2)CC1)Nc1nc2ccc([N+](=O)[O-])cc2s1`, the MIC (Escherichia coli [4]) was 6 µg/mL (≈ 10.6 µM).
In the case of `CCN(CC)Cc1cn(-c2cc3c(cc2F)c(=O)c(C(=O)NO)cn3C2CC2)nn1`, the MIC (Escherichia coli [4]) was > 64 µg/mL.
For `NC1CCN(c2c(F)c3c(c(=O)c(C(=O)O)cn3C3CC3)c3[nH]cnc23)C1` (configuration not stated), the MIC (Escherichia coli [3]) was 0.025 µg/mL (≈ 0.0673 µM).
`NCC1CCN(c2c(F)c3c(c(=O)c(C(=O)O)cn3C3CC3)c3[nH]cnc23)C1` (configuration not stated) showed an MIC (Escherichia coli [3]) of 0.025 µg/mL (≈ 0.0649 µM).
In the case of `COc1ccc(/C=N/NC(=O)c2cn(C3CC3)c3cc(N/N=C/c4ccc(OC)c(O)c4)c(F)cc3c2=O)cc1O`, the MIC (Escherichia coli [4]) was > 64 µg/mL.
`COc1c(N2CCN(CC(=O)Nc3nc4ccc(C)cc4s3)C(C)C2)c(F)cc2c(=O)c(C(=O)O)cn(C3CC3)c12` (configuration not stated) showed an MIC (Escherichia coli [4]) of 6 µg/mL (≈ 10.4 µM).
With `O=C(O)c1cn(C2CC2)c2cc(N3CCN(C4SCC(=O)N4c4nc5ccc(Br)cc5s4)CC3)c(F)cc2c1=O` (configuration not stated) the MIC (Escherichia coli [2]) was 2 µg/mL (≈ 3.1 µM).
For `CC(C)NCc1cn(-c2cc3c(cc2F)c(=O)c(C(=O)NO)cn3C2CC2)nn1`, the MIC (Escherichia coli [4]) was > 64 µg/mL.
In the case of `O=C(O)c1cn(C2CC2)c2cc(N3CCN(C/C(=N/O)c4ccoc4)CC3)c(F)cc2c1=O`, the MIC (Escherichia coli [1]) was 0.049 µg/mL (≈ 0.108 µM).
`CN1CCN(c2cc3c(c(=O)c(C(=O)O)cn3C3CC3)c3[nH]nnc23)CC1` showed an MIC (Escherichia coli [3]) of 0.025 µg/mL (≈ 0.0679 µM).
With `NC1CCN(c2c(F)c3c(c(=O)c(C(=O)O)cn3C3CC3)c3[nH]nnc23)C1` (configuration not stated) the MIC (Escherichia coli [3]) was 0.025 µg/mL (≈ 0.0671 µM).
`COc1c(N2CCN(CC(=O)Nc3nc4ccc(Cl)cc4s3)C(C)C2)c(F)cc2c(=O)c(C(=O)O)cn(C3CC3)c12` (configuration not stated) showed an MIC (Escherichia coli [4]) of 6 µg/mL (≈ 10 µM).
In the case of `COc1cc(/C=N/NC(=O)c2cn(C3CC3)c3cc(N/N=C/c4cc(OC)c(OC)c(OC)c4)c(F)cc3c2=O)cc(OC)c1OC`, the MIC (Escherichia coli [4]) was > 64 µg/mL.
`O=C(CN1CCN(c2cc3c(cc2F)c(=O)c(C(=O)O)cn3C2CC2)CC1)Nc1nc2ccc(Cl)cc2s1` was tested, and the MIC (Escherichia coli [4]) was 6 µg/mL (≈ 10.8 µM).
Compound `NC1CCN(c2cc3c(c(=O)c(C(=O)O)cn3C3CC3)c3[nH]cnc23)C1` (configuration not stated) has an MIC (Escherichia coli [3]) of 0.025 µg/mL (≈ 0.0707 µM).
`O=C(O)c1cn(C2CC2)c2c(F)c(N3CCCNCC3)c(F)cc2c1=O` showed an MIC (Escherichia coli [1]) of 0.03 µg/mL (≈ 0.0826 µM).
For `Cc1ccc2nc(NC(=O)CN3CCN(c4cc5c(cc4F)c(=O)c(C(=O)O)cn5C4CC4)CC3)sc2c1`, the MIC (Escherichia coli [4]) was 6 µg/mL (≈ 11.2 µM).
Work on `CN1CCN(c2c(Cl)c3c(c(=O)c(C(=O)O)cn3C3CC3)c3[nH]nnc23)CC1` yielded an MIC (Escherichia coli [3]) of 0.025 µg/mL (≈ 0.0621 µM).
Compound `CCn1cc(C(=O)O)c(=O)c2cc(F)c(N3CCN(C/C(=N/OCc4ccccc4)c4ccoc4)CC3)cc21` has an MIC (Escherichia coli [1]) of 0.049 µg/mL (≈ 0.092 µM).
For `CN(C)Cc1cn(-c2cc3c(cc2F)c(=O)c(C(=O)NO)cn3C2CC2)nn1`, the MIC (Escherichia coli [4]) was > 64 µg/mL.
`O=C(O)c1cn(C2CC2)c2c(Cl)c(N3CCNCC3)c3nc[nH]c3c2c1=O` gave an MIC (Escherichia coli [3]) of 0.025 µg/mL (≈ 0.0645 µM).
With `COc1ccc(/C=N/NC(=O)c2cn(C3CC3)c3cc(N4CCNCC4)c(F)cc3c2=O)cc1O` the MIC (Escherichia coli [4]) was > 64 µg/mL.
`COc1ccc2nc(N3C(=O)CSC3N3CCN(c4cc5c(cc4F)c(=O)c(C(=O)O)cn5C4CC4)CC3)sc2c1` (configuration not stated) gave an MIC (Escherichia coli [2]) of 2 µg/mL (≈ 3.36 µM).
With `O=C(O)c1cn(C2CC2)c2cc(N3CCNCC3)c3nc[nH]c3c2c1=O` the MIC (Escherichia coli [3]) was 0.025 µg/mL (≈ 0.0707 µM).
In the case of `NCC1CCN(c2c(F)c3c(c(=O)c(C(=O)O)cn3C3CC3)c3[nH]nnc23)C1` (configuration not stated), the MIC (Escherichia coli [3]) was 0.025 µg/mL (≈ 0.0647 µM).
Work on `O=C(CN1CCN(c2cc3c(cc2F)c(=O)c(C(=O)O)cn3C2CC2)CC1)Nc1nc2c(Cl)ccc(Cl)c2s1` yielded an MIC (Escherichia coli [4]) of 6 µg/mL (≈ 10.2 µM).
In the case of `O=C(O)c1cn(C2CC2)c2c(F)c(N3CCNCC3)c3nc[nH]c3c2c1=O`, the MIC (Escherichia coli [3]) was 0.025 µg/mL (≈ 0.0673 µM).
With `O=C(N/N=C/c1ccc([N+](=O)[O-])cc1)c1cn(C2CC2)c2cc(N/N=C/c3ccc([N+](=O)[O-])cc3)c(F)cc2c1=O` the MIC (Escherichia coli [4]) was > 64 µg/mL.
`CCn1cc(C(=O)O)c(=O)c2cc(F)c(N3CCN(CC(=O)Nc4nc5c(Cl)ccc(Cl)c5s4)CC3)cc21` showed an MIC (Escherichia coli [4]) of 6 µg/mL (≈ 10.4 µM).
`CCn1cc(C(=O)O)c(=O)c2cc(F)c(N3CCN(CC(=O)Nc4nc5ccc(F)cc5s4)CC3)cc21` was tested, and the MIC (Escherichia coli [4]) was 6 µg/mL (≈ 11.4 µM).
`CCn1cc(C(=O)O)c(=O)c2cc(F)c(N3CCN(CC(=O)Nc4nc5ccc(Cl)cc5s4)CC3)cc21` gave an MIC (Escherichia coli [4]) of 6 µg/mL (≈ 11 µM).
`CN1CCN(c2cc3c(c(=O)c(C(=O)O)cn3C3CC3)c3[nH]cnc23)CC1` gave an MIC (Escherichia coli [3]) of 0.025 µg/mL (≈ 0.068 µM).
`O=C(N/N=C/c1ccccc1O)c1cn(C2CC2)c2cc(N/N=C/c3ccccc3O)c(F)cc2c1=O` was tested, and the MIC (Escherichia coli [4]) was > 64 µg/mL.
With `O=C(NO)c1cn(C2CC2)c2cc(-n3cc(CN4CCOCC4)nn3)c(F)cc2c1=O` the MIC (Escherichia coli [4]) was > 64 µg/mL.
With `CCn1cc(C(=O)O)c(=O)c2cc(F)c(N3CCNCC3)nc21` [ENOXACIN] the MIC (Escherichia coli [1]) was 0.13 µg/mL (≈ 0.406 µM).
